Blank lines part the entries; values can stand above or below the compound they belong to.
Columns and labels:
[1] = system: vesicular sequestration of acetylcholine; conditions: cited from earlier work
cholinergic neurons [2] = test: Tissue distribution of radiotracer in mouse brain and tissues 4 h after intravenous injection (Example 9, Table II); conditions: 4 h after i.v. injection
cholinergic neurons [3] = test: Temporal pattern of distribution in mouse brain, 4 to 24 h (FIGS. 3 and 4); type: in vivo, female CD-1 mice
in vivo = conditions: mouse, iv
[4] = system: central cholinergic neurons; test: Brain distribution of 5-[125I]iodobenzovesamicol in mice, control and blocked (Example 10, Table III); type: in vivo, CD-1 mice
Method: (§1) Radioactive compound 13 as prepared above in Example 1 was dissolved in ethanol/0.005M sodium acetate (1/9) buffer (pH 4.5) at 1 mCi/ml and 10 μCi of the solution was administered intravenously to lightly etherized CD-1 mice. Animals were sacrificed at various time points after injection. Samples of the brain and other tissues were excised, weighed, and counted. As shown below in Table III, the ratios at 4 hours are consistent with the regional distribution pattern of central cholinergic neurons. […] | ^a N = 5 per group. Mice (CD1) weighed 19-21 g. Concentrations are | normalized to a 20 g mouse. […] | prior to i.v. tracer injection; all amimals were killed 4 h after tracer | injection. Controls received an equal volume of vehicle. In vivo

[5] = as above; type: in vivo, CD-1 mice; conditions: mouse, iv, 10 uCi, normalized to a 20 g mouse
Method: as §1

striatum = test: In vivo autoradiography in rat; conditions: 90 min after i.v. injection
Method: injection. Controls received an equal volume of vehicle. In vivo
autoradiography in rat 90 min after i.v. injection of 5[^125 I]IBVM

cholinergic neurons [6] = test: Blocking of tracer accumulation by pretreatment with unlabeled (-)-vesamicol; conditions: i.p.
[7] = Physiological activity of the enantiomers
[8] = ± S.D., normalized to a 25 g mouse
[9] = Blocked: (±)-vesamicol 0.53 mg/kg, ip, 10 min prior, 4 h after i.v. tracer
[10] = Control, 4 h after i.v. injection
[11] = pretreatment with cold (±)-vesamicol 0.53 mg/kg, ip

Compound: O[C@@H]1CCCC[C@H]1N1CCC(c2ccccc2)CC1 (relative stereo) [Vesamicol, trans-2-(4-phenylpiperidino)-cyclohexanol]
- Inhibition of vesicular sequestration of acetylcholine (in words) [1]: potent inhibitor of the vesicular sequestration of acetylcholine

- Concentration ratio [L. atrium]/[L. ventricle] (cholinergic neurons [2]): 4.7
- Concentration ratio [cortex]/[blood] (cholinergic neurons [2]): 2.3
- Concentration ratio [cortex]/[cerebellum] (cholinergic neurons [2]): 5.9
- Concentration ratio [striatum]/[cerebellum] (cholinergic neurons [2]): 16.5
- % of dose injected, whole brain (cholinergic neurons [2]; normalized to a 25 g mouse): 0.56 ± .07 % OF DOSE INJECTED
- Concentration, cerebellum (cholinergic neurons [2]; [8]): 0.20 ± .04 % DOSE/G
- Concentration, cerebral cortex (cholinergic neurons [2]; [8]): 1.17 ± .20 % DOSE/G
- Concentration, striatum (cholinergic neurons [2]; [8]): 3.29 ± .52 % DOSE/G
Compound: O[C@@H]1Cc2cccc([125I])c2C[C@H]1N1CCC(c2ccccc2)CC1 (relative stereo) [[^125 I]-(±)-IBVM, (±)-trans-2-hydroxy-5-iodo-3-(4-phenylpiperidino)tetralin]

- Initial striatal uptake of the two enantiomers (in words) (cholinergic neurons [3]; mouse striatum): nearly identical initial striatal uptake
- Striatal washout (in words) (cholinergic neurons [3]; mouse striatum): rapidly washes out of the striatum
- Striatal level within 4 hours (in words) (cholinergic neurons [3]; mouse striatum, within 4 hours): nearly absent from this tissue
- Concentration ratio [L. atrium]/[L. ventricle] (cholinergic neurons [2]): 0.9
- Concentration ratio [cortex]/[blood] (cholinergic neurons [2]): 0.3
- Concentration ratio [cortex]/[cerebellum] (cholinergic neurons [2]): 2.0
- Concentration ratio [striatum]/[cerebellum] (cholinergic neurons [2]): 4.3
- % of dose injected, whole brain (cholinergic neurons [2]; normalized to a 25 g mouse): 0.06 ± .01 % OF DOSE INJECTED
- tissue uptake at 4 h (in vivo; cerebellum): 0.06 ± 0.01 %ID/g
- tissue uptake at 4 h (in vivo; cerebral cortex): 0.12 ± 0.01 %ID/g
- tissue uptake at 4 h (in vivo; striatum): 0.26 ± 0.04 %ID/g
Compound: O[C@H]1Cc2cccc([125I])c2C[C@@H]1N1CCC(c2ccccc2)CC1 [[^125 I]-(+)-IBVM]

- Initial striatal uptake of the two enantiomers (in words) (cholinergic neurons [3]; mouse striatum): nearly identical initial striatal uptake
- Tissue ratio cortex/cerebellum [4, 9]: 2.9
- Tissue ratio striatum/cerebellum [4, 9]: 8.2
- Tissue ratio cortex/cerebellum [4, 10]: 5.6
- Tissue ratio striatum/cerebellum [4, 10]: 15.8
- tissue uptake at 4 h ([5]; blood, Blocked: (±)-vesamicol 0.53 mg/kg, ip, 10 min prior, 4 h after i.v. tracer, read-out: Concentration, blood): 0.45 ± 0.1 %ID/g
- tissue uptake at 4 h ([5]; blood, Control, 4 h after i.v. injection, read-out: Concentration, blood): 1.01 ± 0.7 %ID/g
- tissue uptake at 4 h ([5]; cerebellum, Blocked: (±)-vesamicol 0.53 mg/kg, ip, 10 min prior, 4 h after i.v. tracer, read-out: Concentration, cerebellum): 0.24 ± 0.1 %ID/g
- tissue uptake at 4 h ([5]; cerebellum, Control, 4 h after i.v. injection, read-out: Concentration, cerebellum): 0.26 ± 0.06 %ID/g
- tissue uptake at 4 h ([5]; cortex, Blocked: (±)-vesamicol 0.53 mg/kg, ip, 10 min prior, 4 h after i.v. tracer, read-out: Concentration, cortex): 0.69 ± 0.13 %ID/g
- tissue uptake at 4 h ([5]; cortex, Control, 4 h after i.v. injection, read-out: Concentration, cortex): 1.46 ± 0.25 %ID/g
- tissue uptake at 4 h ([5]; striatum, Blocked: (±)-vesamicol 0.53 mg/kg, ip, 10 min prior, 4 h after i.v. tracer, read-out: Concentration, striatum): 1.97 ± 0.35 %ID/g
- tissue uptake at 4 h ([5]; striatum, Control, 4 h after i.v. injection, read-out: Concentration, striatum): 4.12 ± 0.65 %ID/g
- Concentration ratio [L. atrium]/[L. ventricle] (cholinergic neurons [2]): 5.5
- Concentration ratio [cortex]/[blood] (cholinergic neurons [2]): 6.2
- Concentration ratio [cortex]/[cerebellum] (cholinergic neurons [2]): 11.1
- Concentration ratio [striatum]/[cerebellum] (cholinergic neurons [2]): 27.2
- % of dose injected, whole brain (cholinergic neurons [2]; normalized to a 25 g mouse): 1.03 ± .07 % OF DOSE INJECTED
- Concentration, cerebral cortex (cholinergic neurons [2]; [8]): 2.56 ± .21 % DOSE/G
- tissue uptake at 4 h (in vivo; cerebellum): 0.23 ± 0.04 %ID/g
- tissue uptake at 4 h (in vivo; striatum): 6.26 ± 0.46 %ID/g
Compound: O[C@@H]1Cc2cccc([125I])c2C[C@H]1N1CCC(c2ccccc2)CC1 [[^125 I]-(-)-IBVM]
- Neuronal specificity in cortex and striatum (cholinergic neurons [3]; 4-24 h, 4 h activity of (+)-enantiomer as estimate of non-neuronal binding): > 95%
- Specific neuronal binding in cortex and striatum (cholinergic neurons [3]; 4 to 24 h, cerebellar concentration as approximation of non-neuronal binding): > 95%
- Radioactivity in cerebral cortex and striatum over time (in words) (cholinergic neurons [3]; 4 to 24 hours following injection): remains at a high and fairly constant level
- Change of cerebellum accumulation of radioactivity [4, 11]: -8%
- Change of striatal and cortical accumulation of radioactivity [4, 11]: -53%
- Accumulation in striatum by autoradiography (in words) (striatum): selective accumulation of tracer in the striatum
- Lowering of 4 hour striatal and cortical accumulation (cholinergic neurons [6]; pretreatment with unlabeled (-)-vesamicol hydrochloride 605 μg/kg, 10 min prior to tracer): 65%
- Physiological activity versus the other enantiomer (in words) [7]: more physiologically active than the positive

Compound: (-)-vesamicol [reference compound]
- Potency relative to (+)-vesamicol ([1]; enantioselectivity versus (+)-vesamicol): 25 times more potent
- Toxicity limitation of dose (in words) (cholinergic neurons [6]; doses larger than 605 μg/kg): larger doses of (-)-vesamicol could not be injected due to toxicity limitations

Source: patent US5077035A, “Radioiodinated benzovesamicol analogs for cholinergic nerve mapping” (priority 1990, dated 1991)
